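GI50 is the concentration that inhibits growth by half. TGI: total growth inhibition.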
What was measured:
Assay in all cases: growth of human tumour cells (NCI), 384-well format
[1] = system: HCT-15 colon
[2] = system: CAKI-1 renal
[3] = system: SK-OV-3 ovarian
[4] = system: 786-0 renal
[5] = system: K-562 leukemia
[6] = system: MDA-MB-231 breast
[7] = system: HCT-116 colon
[8] = system: SNB-75 CNS
[9] = system: T-47D breast
[10] = system: MOLT-4 leukemia
[11] = system: KM12 colon
[12] = system: UACC-62 melanoma
[13] = system: LOX IMVI melanoma
[14] = system: UACC-257 melanoma
[15] = system: SR leukemia
[16] = system: SK-MEL-5 melanoma
[17] = system: OVCAR-5 ovarian
[18] = system: A549 NSCLC
[19] = system: M14 melanoma
[20] = system: HT29 colon
[21] = system: SF-539 CNS
[22] = system: DU-145 prostate
[23] = system: RPMI-8226 leukemia
[24] = system: NCI/ADR-RES ovarian
[25] = system: RXF 393 renal
[26] = system: NCI-H23 lung
[27] = system: PC-3 prostate
[28] = system: NCI-H322M lung
[29] = system: UO-31 renal
[30] = system: ACHN renal
[31] = system: SK-MEL-2 melanoma
[32] = system: MDA-MB-468 breast
[33] = system: MCF7 breast
[34] = system: SNB-19 CNS
[35] = system: COLO 205 colon
[36] = system: SK-MEL-28 melanoma
[37] = system: SF-295 CNS
[38] = system: HCC-2998 colon
[39] = system: TK-10 renal
[40] = system: A498 renal
[41] = system: NCI-H226 lung
[42] = system: OVCAR-4 ovarian
[43] = system: CCRF-CEM leukemia
[44] = system: MALME-3M melanoma
[45] = system: SW-620 colon
[46] = system: NCI-H460 NSCLC
[47] = system: HS 578T breast
[48] = system: EKVX NSCLC
[49] = system: HOP-92 NSCLC
[50] = system: SF-268 CNS
[51] = system: NCI-H522 lung
[52] = system: SN12C renal
[53] = system: HL-60(TB) leukemia
[54] = system: MDA-MB-435 melanoma
[55] = system: IGROV1 ovarian
[56] = system: U251 glioblastoma
[57] = system: HOP-62 NSCLC
[58] = system: BT-549 breast
[59] = system: OVCAR-3 ovarian

## CC(C)=CCC/C(C)=C/CC/C(C)=C/CSc1ccccc1C(=O)O
[1]
  GI50: 73.3 µM
  TGI: > 100 µM
[2]
  GI50: > 100 µM
  TGI: > 100 µM
[3]
  GI50: > 100 µM
  TGI: > 100 µM
[4]
  GI50: > 100 µM
  TGI: > 100 µM
[5]
  GI50: > 100 µM
  TGI: > 100 µM
[6]
  GI50: > 100 µM
  TGI: > 100 µM
[7]
  GI50: > 100 µM
  TGI: > 100 µM
[8]
  GI50: > 100 µM
  TGI: > 100 µM
[9]
  GI50: > 100 µM
  TGI: > 100 µM
[10]
  GI50: 51.3 µM
  TGI: > 100 µM
[11]
  GI50: > 100 µM
  TGI: > 100 µM
[12]
  GI50: > 100 µM
  TGI: > 100 µM
[13]
  GI50: > 100 µM
  TGI: > 100 µM
[14]
  GI50: > 100 µM
  TGI: > 100 µM
[15]
  GI50: 54.2 µM
  TGI: > 100 µM
[16]
  GI50: > 100 µM
  TGI: > 100 µM
[17]
  GI50: > 100 µM
  TGI: > 100 µM
[18]
  GI50: 90.1 µM
  TGI: > 100 µM
[19]
  GI50: > 100 µM
  TGI: > 100 µM
[20]
  GI50: > 100 µM
  TGI: > 100 µM
[21]
  GI50: > 100 µM
  TGI: > 100 µM
[22]
  GI50: > 100 µM
  TGI: > 100 µM
[23]
  GI50: 47.9 µM
  TGI: > 100 µM
[24]
  GI50: > 100 µM
  TGI: > 100 µM
[25]
  GI50: 70.4 µM
  TGI: > 100 µM
[26]
  GI50: > 100 µM
  TGI: > 100 µM
[27]
  GI50: > 100 µM
  TGI: > 100 µM
[28]
  GI50: > 100 µM
  TGI: > 100 µM
[29]
  GI50: > 100 µM
  TGI: > 100 µM
[30]
  GI50: > 100 µM
  TGI: > 100 µM
[31]
  GI50: > 100 µM
  TGI: > 100 µM
[32]
  GI50: > 100 µM
  TGI: > 100 µM
[33]
  GI50: > 100 µM
  TGI: > 100 µM
[34]
  GI50: > 100 µM
  TGI: > 100 µM
[35]
  GI50: > 100 µM
  TGI: > 100 µM
[36]
  GI50: > 100 µM
  TGI: > 100 µM
[37]
  GI50: > 100 µM
  TGI: > 100 µM
[38]
  GI50: > 100 µM
  TGI: > 100 µM
[39]
  GI50: > 100 µM
  TGI: > 100 µM
[40]
  GI50: > 100 µM
  TGI: > 100 µM
[41]
  GI50: > 100 µM
  TGI: > 100 µM
[42]
  GI50: > 100 µM
  TGI: > 100 µM
[43]
  GI50: 45.2 µM
  TGI: > 100 µM
[44]
  GI50: > 100 µM
  TGI: > 100 µM
[45]
  GI50: > 100 µM
  TGI: > 100 µM
[46]
  GI50: > 100 µM
  TGI: > 100 µM
[47]
  GI50: > 100 µM
  TGI: > 100 µM
[48]
  GI50: > 100 µM
  TGI: > 100 µM
[49]
  GI50: > 100 µM
  TGI: > 100 µM
[50]
  GI50: > 100 µM
  TGI: > 100 µM
[51]
  GI50: 16.2 µM
  TGI: 43.6 µM
[52]
  GI50: > 100 µM
  TGI: > 100 µM
[53]
  GI50: 83.7 µM
  TGI: > 100 µM
[54]
  GI50: > 100 µM
  TGI: > 100 µM
[55]
  GI50: > 100 µM
  TGI: > 100 µM
[56]
  GI50: > 100 µM
  TGI: > 100 µM
[57]
  GI50: > 100 µM
  TGI: > 100 µM
[58]
  GI50: > 100 µM
  TGI: > 100 µM
[59]
  GI50: > 100 µM
  TGI: > 100 µM
